Like-named read-outs stand apart in the source and are kept apart here.
How the values were obtained:
Type in all cases: biochemical
PDE9A2 = target: T1, PDE9A2 (Homo sapiens, UniProt O76083); test: Phosphodiesterase enzyme screening assay, PDE9A2
T1 construct: purchased Reaction Biology Corporation, Malvern, Pa
Method in brief: (§1)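 Read-out was electrophoretic mobility-shift separation on chip of fluorescent cyclic nucleotide from 5′-AMP/5′-GMP, with inhibition or enhancement judged against control wells (quadruplicate means). Reactions lasted 1 h at RT in HEPES pH 7.5 buffer with MgCl2, DTT and Brij plus 4.0 μM cGMP substrate, then were halted with EDTA stop buffer.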

PDE1A = target: T2, PDE1A (Homo sapiens, UniProt P54750); test: Phosphodiesterase enzyme screening assay, PDE1A
T2 construct: purchased Reaction Biology Corporation, Malvern, Pa
Method in brief: as §1

PDE1B = target: T3, PDE1B (Homo sapiens, UniProt Q01064); test: Phosphodiesterase enzyme screening assay, PDE1B
T3 construct: purchased Reaction Biology Corporation, Malvern, Pa
Method in brief: as §1

[1] = Table 1, 10 concentrations, 4.0 μM cGMP substrate, 1 hour at R.T., read-out: Band (PDE9A2 IC50)
[2] = Table 1, ratio of IC50 values, value greater than 1 indicates greater selectivity for PDE9A2
[3] = ratio of IC50 values, value greater than 1 indicates greater selectivity for PDE9A2

T1 sequence (O76083 1-533 isoform O76083-2): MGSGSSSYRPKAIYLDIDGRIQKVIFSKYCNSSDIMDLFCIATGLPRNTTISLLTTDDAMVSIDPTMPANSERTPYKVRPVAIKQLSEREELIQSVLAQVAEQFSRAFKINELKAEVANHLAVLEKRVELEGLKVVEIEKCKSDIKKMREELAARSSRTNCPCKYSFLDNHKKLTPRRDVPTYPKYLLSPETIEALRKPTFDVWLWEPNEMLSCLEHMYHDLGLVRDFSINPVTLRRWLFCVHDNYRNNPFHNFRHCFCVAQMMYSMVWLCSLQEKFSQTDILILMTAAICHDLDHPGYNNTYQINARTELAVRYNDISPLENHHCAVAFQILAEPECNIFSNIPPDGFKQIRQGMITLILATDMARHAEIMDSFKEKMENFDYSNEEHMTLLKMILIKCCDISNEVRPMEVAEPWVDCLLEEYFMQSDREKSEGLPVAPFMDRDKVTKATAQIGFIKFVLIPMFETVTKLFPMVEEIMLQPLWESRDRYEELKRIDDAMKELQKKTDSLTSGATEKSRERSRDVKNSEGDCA
T2 sequence (P54750 whole entry): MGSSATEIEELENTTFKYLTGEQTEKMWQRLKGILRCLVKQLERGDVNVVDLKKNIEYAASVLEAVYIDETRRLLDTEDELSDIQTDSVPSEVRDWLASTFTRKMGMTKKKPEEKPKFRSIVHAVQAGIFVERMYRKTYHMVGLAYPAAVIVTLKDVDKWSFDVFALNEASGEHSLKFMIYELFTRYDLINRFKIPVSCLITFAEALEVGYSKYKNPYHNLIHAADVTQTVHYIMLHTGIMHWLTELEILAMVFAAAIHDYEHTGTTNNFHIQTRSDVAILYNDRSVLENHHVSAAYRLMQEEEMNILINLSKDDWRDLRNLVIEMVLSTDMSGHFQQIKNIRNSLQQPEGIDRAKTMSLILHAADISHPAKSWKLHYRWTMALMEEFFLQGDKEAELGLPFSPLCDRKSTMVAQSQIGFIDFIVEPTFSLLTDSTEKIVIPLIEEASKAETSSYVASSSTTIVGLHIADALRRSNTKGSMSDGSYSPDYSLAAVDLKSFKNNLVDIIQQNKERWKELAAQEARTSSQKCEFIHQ
T3 sequence (Q01064 whole entry): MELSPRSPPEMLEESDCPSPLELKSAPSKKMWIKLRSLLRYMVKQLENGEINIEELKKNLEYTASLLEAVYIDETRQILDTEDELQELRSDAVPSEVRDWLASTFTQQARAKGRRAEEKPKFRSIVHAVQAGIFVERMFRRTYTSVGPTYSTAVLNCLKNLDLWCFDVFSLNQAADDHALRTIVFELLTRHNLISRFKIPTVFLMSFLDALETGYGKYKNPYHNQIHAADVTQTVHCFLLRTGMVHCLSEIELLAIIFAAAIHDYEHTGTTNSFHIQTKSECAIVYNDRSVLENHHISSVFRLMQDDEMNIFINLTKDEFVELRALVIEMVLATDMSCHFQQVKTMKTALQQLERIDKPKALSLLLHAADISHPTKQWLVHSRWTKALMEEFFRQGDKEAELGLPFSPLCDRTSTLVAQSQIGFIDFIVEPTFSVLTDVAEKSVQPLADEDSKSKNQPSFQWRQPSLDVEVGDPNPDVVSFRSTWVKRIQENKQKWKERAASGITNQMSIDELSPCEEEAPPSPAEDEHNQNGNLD

Structure (SMILES) | IC50 (PDE9A2; [1]) [nM] | PDE1A selectivity (versus PDE9A2) (PDE1A; [2]) | PDE1B selectivity (versus PDE9A2) (PDE1B; [2]) | also measured
CC1CN(Cc2ccc(F)cc2)CC1c1nn2c(C3CCC(F)(F)CC3)ncc2c(=O)[nH]1 (single isomer, unassigned; (+)) [(+)-(4,4-difluorocyclohexyl)-2-((3,4-trans)-1-(4-fluorobenzyl)-4-methylpyrrolidin-3-yl)imidazo[5,1-f][1,2,4]triazin-4(3H)-one] | < 1000 | 1453 | 2980 | –
CC1CN(C)CC1c1nn2c(C3CCOCC3)ncc2c(=O)[nH]1 (single isomer, unassigned; (+)) [(+)-((3,4-trans)-1,4-dimethylpyrrolidin-3-yl)-7-(tetrahydro-2H-pyran-4-yl)imidazo[5,1-f][1,2,4]triazin-4(3H)-one] | < 1000 | 75 | 121 | –
CC1CN(Cc2ccccc2C2CC2)CC1c1nn2c(C3CCOCC3)ncc2c(=O)[nH]1 (single isomer, unassigned; (-)) [(−)-2-((3,4-trans)-1-(2-cyclopropylbenzyl)-4-methylpyrrolidin-3-yl)-7-(tetrahydro-2H-pyran-4-yl)imidazo[5,1-f][1,2,4]triazin-4(3H)-one] | < 1000 | 685 | 505 | –
CC1CN(C(=O)c2ccccc2F)CC1c1nn2c(C3CCOCC3)ncc2c(=O)[nH]1 (single isomer, unassigned; (-)) [(−)-2-((3,4-trans)-1-(2-fluorobenzoyl)-4-methylpyrrolidin-3-yl)-7-(tetrahydro-2H-pyran-4-yl)imidazo[5,1-f][1,2,4]triazin-4(3H)-one] | < 1000 | 9 | 7 | –
CC1CN(C(=O)c2cccc(F)c2)CC1c1nn2c(C3CCOCC3)ncc2c(=O)[nH]1 (single isomer, unassigned; (-)) [(−)-2-((3,4-trans)-1-(3-fluorobenzoyl)-4-methylpyrrolidin-3-yl)-7-(tetrahydro-2H-pyran-4-yl)imidazo[5,1-f][1,2,4]triazin-4(3H)-one] | < 1000 | 26 | 26 | –
Cc1ccc(F)cc1-c1ncc2c(=O)[nH]c(C3CN(Cc4ccc(Cl)cc4)CC3C)nn12 (single isomer, unassigned; (-)) [(−)-2-((3,4-trans)-1-(4-chlorobenzyl)-4-methylpyrrolidin-3-yl)-7-(5-fluoro-2-methylphenyl)imidazo[5,1-f][1,2,4]triazin-4(3H)-one] | – | – | – | IC50 (PDE9A2; IC50 band, 4.0 μM cGMP substrate, 1 hour at R.T.): < 1000 nM; PDE1A selectivity (versus PDE9A2) (PDE1A; ratio of IC50 values PDE1A vs PDE9A2, value greater than 1 indicates greater selectivity for PDE9A2): 3375; PDE1B selectivity (versus PDE9A2) (PDE1B; ratio of IC50 values PDE1B vs PDE9A2, value greater than 1 indicates greater selectivity for PDE9A2): 1735
CC1CN(Cc2nc3ccccc3[nH]2)CC1c1nn2c(C3CCOCC3)ncc2c(=O)[nH]1 (single isomer, unassigned; (-)) [(−)-2-((3,4-trans)-1-((1H-benzo[d]imidazol-2-yl)methyl)-4-methylpyrrolidin-3-yl)-7-(tetrahydro-2H-pyran-4-yl)imidazo[5,1-f][1,2,4]triazin-4(3H)-one] | < 1000 | 433 | 540 | –
CC1CN(Cc2ccc(-c3ccccc3)cc2)CC1c1nn2c(C3CCOCC3)ncc2c(=O)[nH]1 (single isomer, unassigned; (-)) [(−)-2-((3,4-trans)-1-([1,1′-biphenyl]-4-ylmethyl)-4-methylpyrrolidin-3-yl)-7-(tetrahydro-2H-pyran-4-yl)imidazo[5,1-f][1,2,4]triazin-4(3H)-one] | – | – | – | IC50 (PDE9A2; read-out: Band (PDE9A2 IC50)): < 1000 nM; PDE1A selectivity (versus PDE9A2) (PDE1A; [3]): 2875; PDE1B selectivity (versus PDE9A2) (PDE1B; [3]): 2060
CC1CN(Cc2cn3cccnc3n2)CC1c1nn2c(C3CCOCC3)ncc2c(=O)[nH]1 (single isomer, unassigned; (-)) [(−)-2-((3,4-trans)-1-(imidazo[1,2-a]pyrimidin-2-ylmethyl)-4-methylpyrrolidin-3-yl)-7-(tetrahydro-2H-pyran-4-yl)imidazo[5,1-f][1,2,4]triazin-4(3H)-one] | < 1000 | 188 | 591 | –
CC1CN(Cc2cn3ncccc3n2)CC1c1nn2c(C3CCOCC3)ncc2c(=O)[nH]1 (single isomer, unassigned; (-)) [(−)-2-((3,4-trans)-1-(imidazo[1,2-b]pyridazin-2-ylmethyl)-4-methylpyrrolidin-3-yl)-7-(tetrahydro-2H-pyran-4-yl)imidazo[5,1-f][1,2,4]triazin-4(3H)-one] | < 1000 | 8 | 12 | –
CC1CN(Cc2ccccc2)CC1c1nn2c(C3CCOCC3)ncc2c(=O)[nH]1 (single isomer, unassigned; (-)) [(−)-2-((3,4-trans)-1-benzyl-4-methylpyrrolidin-3-yl)-7-(tetr] [(−)-2-((3,4-trans)-1-benzyl-4-methylpyrrolidin-3-yl)-7-(tetrahydro-2H-pyran-4-yl)imidazo[1,5-f][1,2,4]triazin-4(3H)-one] | < 1000 | 465 | 550 | –
CC1CN(Cc2ccc(-c3ccncc3)cc2)CC1c1nn2c(C3CCOCC3)ncc2c(=O)[nH]1 (single isomer, unassigned; (-)) [(−)-2-((3,4-trans)-4-methyl-1-(4-(pyridin-4-yl)benzyl)pyrrolidin-3-yl)-7-(tetrahydro-2H-pyran-4-yl)imidazo[5,1-f][1,2,4]triazin-4(3H)-one] | – | – | – | IC50 (PDE9A2; Table 3, 4.0 μM cGMP substrate, 1 hour at R.T., read-out: Band (PDE9A2 IC50)): < 1000 nM; PDE1A selectivity (versus PDE9A2) (PDE1A; ratio of IC50 values, PDE1A versus PDE9A2, value greater than 1 = greater selectivity for PDE9A2): 679; PDE1B selectivity (versus PDE9A2) (PDE1B; ratio of IC50 values, PDE1B versus PDE9A2, value greater than 1 = greater selectivity for PDE9A2): 1560

More lines, main results first:

IC50 (PDE9A2; [1]) [nM] | PDE1A selectivity (versus PDE9A2) (PDE1A; [2]) | PDE1B selectivity (versus PDE9A2) (PDE1B; [2]) | Structure (SMILES) | also measured
< 1000 | 1213 | 2000 | CC1CN(Cc2ncc3ccccc3n2)CC1c1nn2c(C3CCOCC3)ncc2c(=O)[nH]1 (single isomer, unassigned; (-)) [(−)-2-((3,4-trans)-4-methyl-1-(quinazolin-2-ylmethyl)pyrroli] [(−)-2-((3,4-trans)-4-methyl-1-(quinazolin-2-ylmethyl)pyrrolidin-3-yl)-7-(tetrahydro-2H-pyran-4-yl)imidazo[5,1-f][1,2,4]triazin-4(3H)-one] | –
< 1000 | 32 | 50 | CC1CN(C(=O)c2ncc3ccccc3n2)CC1c1nn2c(C3CCOCC3)ncc2c(=O)[nH]1 (single isomer, unassigned; (-)) [(−)-2-((3,4-trans)-4-methyl-1-(quinazoline-2-carbonyl)pyrrolidin-3-yl)-7-(tetrahydro-2H-pyran-4-yl)imidazo[5,1-f][1,2,4]triazin-4(3H)-one] | –
< 1000 | 56 | 48 | CC1CN(Cc2ccc3ccccc3n2)CC1c1nn2c(C3CCOCC3)ncc2c(=O)[nH]1 (single isomer, unassigned; (-)) [(−)-2-((3,4-trans)-4-methyl-1-(quinolin-2-ylmethyl)pyrrolidi] [(−)-2-((3,4-trans)-4-methyl-1-(quinolin-2-ylmethyl)pyrrolidin-3-yl)-7-(tetrahydro-2H-pyran-4-yl)imidazo[5,1-f][1,2,4]triazin-4(3H)-one] | –
< 1000 | 334 | 2610 | CC1CN(Cc2ccc3cccnc3c2)CC1c1nn2c(C3CCOCC3)ncc2c(=O)[nH]1 (single isomer, unassigned; (-)) [(−)-2-((3,4-trans)-4-methyl-1-(quinolin-7-ylmethyl)pyrrolidin-3-yl)-7-(tetrahydro-2H-pyran-4-yl)imidazo[5,1-f][1,2,4]triazin-4(3H)-one] | –
< 1000 | 25 | 59 | CC1CN(C(=O)c2ccc3ccccc3n2)CC1c1nn2c(C3CCOCC3)ncc2c(=O)[nH]1 (single isomer, unassigned; (-)) [(−)-2-((3,4-trans)-4-methyl-1-(quinoline-2-carbonyl)pyrrolidin-3-yl)-7-(tetrahydro-2H-pyran-4-yl)imidazo[5,1-f][1,2,4]triazin-4(3H)-one] | –
< 1000 | 36 | 50 | CC1CN(C(=O)c2cccnc2)CC1c1nn2c(C3CCOCC3)ncc2c(=O)[nH]1 (single isomer, unassigned; (-)) [(−)-2-((3,4-trans)-4-methyl-1-nicotinoylpyrrolidin-3-yl)-7-(tetrahydro-2H-pyran-4-yl)imidazo[5,1-f][1,2,4]triazin-4(3H)-one] | –
